pIC50: −log10 of the molar value.
Test system: 454973-116-R2-J3-PDC spheroids, percent test/control viability
Assay: Anticancer human tumor 454973-116-R2-J3-PDC patient-derived pancreatic carcinoma cell line growth inhibition [CLK]
Details: spheroids with HUVEC and MSC; for pIC50: curve of first compound; for viability, T/C: stronger effect = lower value
How it was run: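 Patient-derived tumor cells grown as complex spheroids with HUVEC endothelial cells and mesenchymal stem cells, treated with drug combinations. Concentrations descend in half-log steps from near clinical Cmax, or from 10 microM if Cmax unknown.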
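Also: spheroids exposed to compounds for 7 days before readout.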

CC(C)CC(NC(=O)C(Cc1ccccc1)NC(=O)c1cnccn1)B(O)O (centres undefined) + CN1CCN(c2cc(C(=O)Nc3cc4cc(-c5cnn(C)c5)ccc4cn3)ccn2)CC1
pIC50 (second compound 0.0316 µM): 8.48 | pIC50 (second compound 0.1 µM): 8.82 | pIC50 (second compound 0.316 µM): > 9.02 | pIC50 (second compound 1 µM): > 9.02 | pIC50 (second compound 3.16 µM): > 9.02 | pIC50 (second compound 10 µM): > 9.02 | viability, T/C (second compound 0.0316 µM, first compound 0.000949 µM): 94.4% | viability, T/C (second compound 0.0316 µM, first compound 0.003 µM): 54.7% | viability, T/C (second compound 0.0316 µM, first compound 0.00949 µM): 0.27% | viability, T/C (second compound 0.0316 µM, first compound 0.03 µM): 0.3% | viability, T/C (second compound 0.0316 µM, first compound 0.0949 µM): 0.17% | viability, T/C (second compound 0.0316 µM, first compound 0.3 µM): 0.14% | viability, T/C (second compound 0.1 µM, first compound 0.000949 µM): 73.7% | viability, T/C (second compound 0.1 µM, first compound 0.003 µM): 14.8% | viability, T/C (second compound 0.1 µM, first compound 0.00949 µM): 0.41% | viability, T/C (second compound 0.1 µM, first compound 0.03 µM): 0.19% | viability, T/C (second compound 0.1 µM, first compound 0.0949 µM): 0.16% | viability, T/C (second compound 0.1 µM, first compound 0.3 µM): 0.14% | viability, T/C (second compound 0.316 µM, first compound 0.000949 µM): 2.21% | viability, T/C (second compound 0.316 µM, first compound 0.003 µM): 0.7% | viability, T/C (second compound 0.316 µM, first compound 0.00949 µM): 1.43% | viability, T/C (second compound 0.316 µM, first compound 0.03 µM): 0.12% | viability, T/C (second compound 0.316 µM, first compound 0.0949 µM): 0.11% | viability, T/C (second compound 0.316 µM, first compound 0.3 µM): 0.09% | viability, T/C (second compound 1 µM, first compound 0.000949 µM): 0.12% | viability, T/C (second compound 1 µM, first compound 0.003 µM): 0.19% | viability, T/C (second compound 1 µM, first compound 0.00949 µM): 0.09% | viability, T/C (second compound 1 µM, first compound 0.03 µM): 0.05% | viability, T/C (second compound 1 µM, first compound 0.0949 µM): 0.07% | viability, T/C (second compound 1 µM, first compound 0.3 µM): 0.07% | viability, T/C (second compound 3.16 µM, first compound 0.000949 µM): 0.16% | viability, T/C (second compound 3.16 µM, first compound 0.003 µM): 1.02% | viability, T/C (second compound 3.16 µM, first compound 0.00949 µM): 0.07% | viability, T/C (second compound 3.16 µM, first compound 0.03 µM): 0.05% | viability, T/C (second compound 3.16 µM, first compound 0.0949 µM): 0.6% | viability, T/C (second compound 3.16 µM, first compound 0.3 µM): 0.79% | viability, T/C (second compound 10 µM, first compound 0.000949 µM): 0.09% | viability, T/C (second compound 10 µM, first compound 0.003 µM): 0.13% | viability, T/C (second compound 10 µM, first compound 0.00949 µM): 0.88% | viability, T/C (second compound 10 µM, first compound 0.03 µM): 0.09% | viability, T/C (second compound 10 µM, first compound 0.0949 µM): 0.16% | viability, T/C (second compound 10 µM, first compound 0.3 µM): 0.17%

CC1COCCN1c1cc(C2(S(C)(=N)=O)CC2)nc(-c2ccnc3[nH]ccc23)n1 (centres undefined) + CN1CCN(c2cc(C(=O)Nc3cc4cc(-c5cnn(C)c5)ccc4cn3)ccn2)CC1
pIC50 (second compound 0.0316 µM): 5.14 | pIC50 (second compound 0.1 µM): 5.34 | pIC50 (second compound 0.316 µM): > 7.50 | pIC50 (second compound 1 µM): > 7.50 | pIC50 (second compound 3.16 µM): > 7.50 | pIC50 (second compound 10 µM): > 7.50 | viability, T/C (second compound 0.0316 µM, first compound 0.0316 µM): 97.4% | viability, T/C (second compound 0.0316 µM, first compound 0.1 µM): 105% | viability, T/C (second compound 0.0316 µM, first compound 0.316 µM): 96.2% | viability, T/C (second compound 0.0316 µM, first compound 1 µM): 106% | viability, T/C (second compound 0.0316 µM, first compound 3.16 µM): 83.3% | viability, T/C (second compound 0.0316 µM, first compound 10 µM): 37.1% | viability, T/C (second compound 0.1 µM, first compound 0.0316 µM): 73.4% | viability, T/C (second compound 0.1 µM, first compound 0.1 µM): 80.5% | viability, T/C (second compound 0.1 µM, first compound 0.316 µM): 91.4% | viability, T/C (second compound 0.1 µM, first compound 1 µM): 77.5% | viability, T/C (second compound 0.1 µM, first compound 3.16 µM): 62.9% | viability, T/C (second compound 0.1 µM, first compound 10 µM): 21.5% | viability, T/C (second compound 0.316 µM, first compound 0.0316 µM): 1.53% | viability, T/C (second compound 0.316 µM, first compound 0.1 µM): 2.23% | viability, T/C (second compound 0.316 µM, first compound 0.316 µM): 1.84% | viability, T/C (second compound 0.316 µM, first compound 1 µM): 1.74% | viability, T/C (second compound 0.316 µM, first compound 3.16 µM): 1.04% | viability, T/C (second compound 0.316 µM, first compound 10 µM): 0.46% | viability, T/C (second compound 1 µM, first compound 0.0316 µM): 0.13% | viability, T/C (second compound 1 µM, first compound 0.1 µM): 0.13% | viability, T/C (second compound 1 µM, first compound 0.316 µM): 0.16% | viability, T/C (second compound 1 µM, first compound 1 µM): 0.1% | viability, T/C (second compound 1 µM, first compound 3.16 µM): 0.11% | viability, T/C (second compound 1 µM, first compound 10 µM): 0.1% | viability, T/C (second compound 3.16 µM, first compound 0.0316 µM): 0.17% | viability, T/C (second compound 3.16 µM, first compound 0.1 µM): 0.21% | viability, T/C (second compound 3.16 µM, first compound 0.316 µM): 0.22% | viability, T/C (second compound 3.16 µM, first compound 1 µM): 0.2% | viability, T/C (second compound 3.16 µM, first compound 3.16 µM): 0.15% | viability, T/C (second compound 3.16 µM, first compound 10 µM): 0.21% | viability, T/C (second compound 10 µM, first compound 0.0316 µM): 1.56% | viability, T/C (second compound 10 µM, first compound 0.1 µM): 0.21% | viability, T/C (second compound 10 µM, first compound 0.316 µM): 0.22% | viability, T/C (second compound 10 µM, first compound 1 µM): 0.31% | viability, T/C (second compound 10 µM, first compound 3.16 µM): 0.25% | viability, T/C (second compound 10 µM, first compound 10 µM): 0.6%

From PubChem BioAssay AID2060618 (Molecular Pharmacology Branch, DTP, NCI, 2025)
